Reference: patent US20090311782A1, “METHOD FOR PROMOTING DIFFERENTIATION OF STEM CELL INTO INSULIN PRODUCING CELL” (TAIPEI VETERANS GENERAL HOSPITAL, priority 2008, published 2009)

Legend:
Assay type in all cases: cell-based
human MSCs [1] = assay: Dithizone (DTZ) staining for islet differentiation; details: pellet suspension culture with versus without fibronectin, DTZ staining (not shown)
Source text: Islet differentiation is further evaluated by dithizone (DTZ) staining to detect zinc ion, which binds six insulin molecules within the cells. Cells in the control groups I and II are not stained by DTZ; cells in the embodiment II are slightly stained by DTZ, and cells in the embodiment I are greatly stained by DTZ (not shown).

human MSCs [2] = assay: Insulin and Glut2 gene expression in stage IV cells by real-time RT-PCR, normalized by GAPDH (FIGS. 4A, 4B); details: pellet suspension culture; for gene expressions of insulin and Glut2: 5 μg/mL ECM, compared with pellet culture without any ECM
Experimental: In order to further compare the different differentiation effects resulting from different ECMs when stem cells differentiate into IPCs in pellet suspension culture, the present invention performs the tests by adding fibronectin and laminin in combination or separately.
The gene expressions of insulin and Glut2 in stage IV cells of the present embodiments I-IV are analyzed by real-time RT-PCR respectively, and the detected results are further normalized by the expression level of glyceraldehyde-3-phosphate dehydrogenase (GAPDH) to measure the mRNA expression levels.

human MSCs [3] = assay: Relative mRNA expression of insulin and Glut2 by RT-PCR and agarose electrophoresis, normalized by β-actin (FIG. 1); details: end of four-stage culture
Source text: Islet cells are aggregated cells, and the extracellular matrix (ECM) thereof includes fibronectin and laminin. The present invention provides a method for promoting MSCs to differentiate into IPCs by cell pellet suspension culture with additional fibronectin or laminin. The cells of the embodiments and the control groups at the end of the four-stage culture are harvested, and the relative mRNA expression levels of insulin and glucose transporter 2 (Glut2) thereof are detected by reverse-transcription polymerase chain reaction (RT-PCR) and agarose electrophoresis, and are normalized by the expression level of β-actin. In addition, it should be noted that all of the bar graphs shown in FIGS. 1-4 are represented by the measured mean with its standard deviation.

[4] = test system: IPCs derived from human MSCs; assay: Insulin release by IPCs quantified by human insulin ELISA; details: IBMX 100 μM, low glucose concentration (5 mM), 1 hour incubation in KRB buffer, FIG. 3B, p<0.05
Experimental: Insulin is an endocrine for reducing blood sugar, and normal islet cells are induced by glucose to release insulin. In order to quantify insulin release by IPCs, a human insulin ELISA (Enzyme-Link ImmunoSorbent Assay) is employed herein.
The suspension stage IV cells are rinsed twice in Phosphate Buffered Saline (PBS) and Krebs-Ringer bicarbonate (KRB) buffer (120 mM NaCl, 5 m M KCl, 2.5 m M CaCl2, 1.1 mM MgCl2, 25 mM NaHCO3 , 0.1 BSA) and preincubated for 1 hour with KRB buffer containing 5 mM glucose. The suspension stage IV cells are then incubated for 1 hour in fresh KRB buffer with 5 mM, 10 mM, 15 mM or 25 mM glucose, and the released insulin in the incubation medium is quantified by ELISA. The quantified insulin release results are shown in FIG. 3A, wherein undifferentiated MSCs are served as a control (*p<0.05 as compared with 5 mM; #p<0.05 as compared with 10 mM; student's t test). […] The insulin secreted by IPCs derived from human MSCs in the present invention is up to 1.1 ng/h/2.5×10^5 IPCs, which is even higher than those secreted by IPCs derived from rodent bone marrow stem cells in the prior art (referring to the citations 5-7). […]

[5] = monolayer culture with 5 μg/mL fibronectin (control group I)
[6] = pellet suspension culture with 5 μg/mL fibronectin (embodiment I)

| Compound | differentiation of MSCs into IPCs (human MSCs [1]) | gene expressions of insulin and Glut2 (human MSCs [2]) | Glut2 expression (human MSCs [3]; [5]) | gene expression of insulin (human MSCs [3]; [5]) | Glut2 expression (human MSCs [3]; [6]) | gene expression of insulin (human MSCs [3]; [6]) | gene expression level compared with fibronectin plus laminin (human MSCs [2]) | insulin and Glut2 expressions compared with fibronectin only (human MSCs [2]; compared with embodiment I (fibronectin only)) | insulin release [4] |
| --- | --- | --- | --- | --- | --- | --- | --- | --- | --- |
| fibronectin | can further enhance the differentiation of MSCs into IPCs | increased gene expressions of insulin and Glut2 | moderately detected | not detected | markedly detected | obviously detected |  |  |  |
| laminin |  | increased gene expressions of insulin and Glut2 |  |  |  |  | significantly higher than that of the embodiment IV | higher than the embodiment I |  |
| CC(C)Cn1c(=O)n(C)c(=O)c2[nH]cnc21 [IBMX, 3-isobutyl-1-methylxanthine] |  |  |  |  |  |  |  |  | stimulates insulin release |
